From patent US20040053857A1, “Glycoalkaloid compositions and various uses thereof” (priority 2002, published 2004)

Legend:
Type in all cases: cell-based
NO36 tumour cell line [1] = assay: Effect of solamargine:solasonine ratio on cytotoxicity, MTT cell proliferation assay; settings: NO36, 6 day assay, 5000 cells
Protocol: (§1) Tumour cell lines 786-O and NO36 and normal fibroblasts NHDF-Ad were used in 5000 cell assays, for three, six and six day assays, respectively, to study the effect of solamargine:solasonine ratio on cytotoxicity.
(§2) Solutions of 4 mg/mL solamargine and 4 mg/mL solasonine in 3% acetic acid were mixed to provide the various ratios. These mixtures were diluted in the culture medium appropriate to the cell line used to concentrations ranging from 0.32 to 40 ug/mL. Fifty uL aliquots were added to tissue culture wells seeded with 5000 cells in 150 uL culture medium 24 hours previously.
(§3) Cell survival was assessed using the MTT cell proliferation assay following four days growth after application of the alkaloids. The formazan absorbance of alkaloid treated wells relative to wells treated with an equivalently dilute acetic acid solution expressed as a percentage has been taken as percentage cell survival.

[2] = tested on: NHDF-Ad normal fibroblasts; assay: as above; settings: 6 day assay, 5000 cells
Protocol: as §1, §2, §3

786-O tumour cell line [3] = assay: as above; settings: 3 day assay, 5000 cells
Protocol: as §1, §2, §3

NO36 tumour cell line [4] = assay: Dose per cell at LD50, 5000 cell six day assay; settings: NO36, 5000 cells, dose per cell limiting
Description: (§4) Tumour cell lines A2058, NO36 and LS174T and the normal adult dermal fibroblast line NHDF-Ad were used in 5000 cell, six day assays to compare dose per cell at LD50 values for BEC (1:1 solamargine:solasonine), solamargine, solasonine and an equimolar mixture of solamargine and solasonine. Data from the fibroblast cell line NHRE in a 2500 cell 3 day assay was also obtained.

LS174T tumour cell line = assay: Dose per cell at LD50, 5000 cell six day assay; settings: 5000 cells, dose per cell limiting
Description: as §4

[5] = tested on: NHDF-Ad normal adult dermal fibroblast line; assay: Dose per cell at LD50, 5000 cell six day assay; settings: NHDF-Ad normal cells, 5000 cells, dose per cell limiting
Description: as §4

A2058 tumour cell line = assay: Dose per cell at LD50, 5000 cell six day assay; settings: A2058, 5000 cells, dose per cell limiting
Description: as §4

786-O tumour cell line [6] = assay: Dose per cell at LD50, 5000 cell three day format (dose per cell limiting); settings: 5000 cells
Description: (§5) Tumour cell line LNCaP was used at 7500 cells in a six day assay format while 786-O was used in a 650 cell, six day format where dose per cell is not a limiting factor determining LD50 as well as in 5000 cell, three day format where dose per cell does limit LD50.

[7] = tested on: NHRE fibroblast cell line; assay: Dose per cell at LD50, 2500 cell 3 day assay; settings: NHRE normal cells, 2500 cells, dose per cell limiting
Description: as §4

LNCaP tumour cell line = assay: Dose per cell at LD50, 7500 cell six day assay; settings: 7500 cells, dose per cell limiting
Description: as §5

786-O tumour cell line [8] = assay: Dose per cell at LD50, 650 cell six day format (dose per cell not limiting); settings: 650 cells
Description: as §5

| SMILES | Dose per cell at LD50, (NO36 tumour cell line [1]) [pg] | Dose per cell at LD50, [2] [pg] | Dose per cell at LD50, (786-O tumour cell line [3]) [pg] | Dose per cell at LD50, pg/cell of total alkaloid (NO36 tumour cell line [4]) [pg/cell] | Dose per cell at LD50, pg/cell of total alkaloid (LS174T tumour cell line) [pg/cell] | Dose per cell at LD50, pg/cell of total alkaloid [5] [pg/cell] | Dose per cell at LD50, pg/cell of total alkaloid (A2058 tumour cell line) [pg/cell] | Dose per cell at LD50, pg/cell of total alkaloid (786-O tumour cell line [6]) [pg/cell] | Dose per cell at LD50, pg/cell of total alkaloid [7] [pg/cell] | Dose per cell at LD50, pg/cell of total alkaloid (LNCaP tumour cell line) [pg/cell] | Dose per cell at LD50, pg/cell of total alkaloid (786-O tumour cell line [8]) [pg/cell] |
| --- | --- | --- | --- | --- | --- | --- | --- | --- | --- | --- | --- |
| C[C@@H]1CC[C@@]2(NC1)O[C@H]1C[C@H]3[C@@H]4CC=C5C[C@@H](O[C@@H]6O[C@H](CO)[C@@H](O[C@@H]7O[C@@H](C)[C@H](O)[C@@H](O)[C@H]7O)[C@H](O)[C@H]6O[C@@H]6O[C@@H](C)[C@H](O)[C@@H](O)[C@H]6O)CC[C@]5(C)[C@H]4CC[C@]3(C)[C@H]1[C@@H]2C [Solamargine, solamargine] | 209 | 112 | 304 | 154.8 | 162.8 | 209.2 | 199.0 | 208.0 | 227.9 | 121.9 | 1394.0 |
| C[C@@H]1CC[C@@]2(NC1)O[C@H]1C[C@H]3[C@@H]4CC=C5C[C@@H](O[C@@H]6O[C@H](CO)[C@H](O)[C@H](O[C@@H]7O[C@H](CO)[C@@H](O)[C@H](O)[C@H]7O)[C@H]6O[C@@H]6O[C@@H](C)[C@H](O)[C@@H](O)[C@H]6O)CC[C@]5(C)[C@H]4CC[C@]3(C)[C@H]1[C@@H]2C [Solasonine, solasonine] | 613 | 400 | 500 | 613.2 | >400 | 587.6 | 685 | >400 | 1657.7 | 432.5 | 5606.0 |
